Values quoted from earlier work, collected in US20240207240A1, “Method for Improving or Treating Cognitive Dysfunction Complicating HIV-associated Cryptococcal Meningitis with Lenalidomide” (The First Affiliated Hospital Zhejiang University School of …, priority 2022, published 2024).

Experiments:
[1] = cited from earlier work
[2] = in vivo; cited from earlier work

Row | SMILES | bioavailability [1] | side effects [2]
1 | Nc1cccc2c1C(=O)N(C1CCC(=O)NC1=O)C2=O (stereo not drawn) [pomalidomide] | high | 
2 | O=C1CCC(N2C(=O)c3ccccc3C2=O)C(=O)N1 (stereo not drawn) [thalidomide] | high | bone marrow suppression, cardiotoxicity, vascular thrombosis, and neurotoxicity
